24 compounds from ChEMBL document CHEMBL1806408, “Design-driven LO: the discovery of new ultra long acting dibasic β2-adrenoceptor agonists” (Bioorg Med Chem Lett, 2011) can be followed below.

The structures appear in SMILES notation. Where only a bound is given, the exact number is not on record here.

One data set is described as follows: in vivo. Conditions: rat, plasma, iv.
Data set [1] in a line: Selectivity ratio of IC50 for adrenergic beta1 receptor over EC50 for human adrenergic beta2 receptor.
Data set [2] in a line: Selectivity ratio of EC50 for human adrenergic beta2 receptor to EC50 for adrenergic beta1 receptor.
Data set [3] in a line: Selectivity ratio of IC50 for dopamine 2 receptor over EC50 for human adrenergic beta2 receptor.
Data set [4] has as its system Cavia porcellus. In words: Bronchodilatory activity in intratracheally dosed guinea pig assessed as inhibition of histamine-induced bronchoconstriction. Particulars: inhaled or nasal.
A short description of another data set: physchem. Conditions: octanol/phosphate buffer, pH 7.4.
The test system of data set [5] is Cavia porcellus. Put plainly: Bronchodilatory activity in intratracheally dosed guinea pig assessed as inhibition of histamine-induced bronchoconstriction after 24 hrs. The format is functional.
Data set [6] is described as follows: Oral bioavailability in rat. In kind it is ADME, organism-based. Particulars: in vivo.
The target of data set [7] is T1, Beta-1 adrenergic receptor (Homo sapiens, UniProt P08588).
T1 sequence (P08588 whole entry): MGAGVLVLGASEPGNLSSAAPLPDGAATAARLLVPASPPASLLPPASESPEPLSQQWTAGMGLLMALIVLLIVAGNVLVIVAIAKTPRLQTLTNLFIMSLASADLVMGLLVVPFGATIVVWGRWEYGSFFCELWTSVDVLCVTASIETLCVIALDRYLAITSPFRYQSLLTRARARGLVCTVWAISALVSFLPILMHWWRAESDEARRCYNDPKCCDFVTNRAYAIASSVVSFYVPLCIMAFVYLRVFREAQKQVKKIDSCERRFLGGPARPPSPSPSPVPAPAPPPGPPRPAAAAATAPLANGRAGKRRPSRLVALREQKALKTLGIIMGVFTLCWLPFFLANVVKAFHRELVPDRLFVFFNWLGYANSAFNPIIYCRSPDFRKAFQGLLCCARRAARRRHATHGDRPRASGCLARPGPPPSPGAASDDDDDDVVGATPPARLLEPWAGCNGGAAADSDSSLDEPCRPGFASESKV
Data set [8] has as its target Beta-2 adrenergic receptor (Homo sapiens, UniProt P07550).
The next data set concerns the target D(2) dopamine receptor (Homo sapiens, UniProt P14416).
In data set [9] the target is T1, Beta-1 adrenergic receptor. This is another data set of the same source.

Sequence of D(2) dopamine receptor (P14416 whole entry): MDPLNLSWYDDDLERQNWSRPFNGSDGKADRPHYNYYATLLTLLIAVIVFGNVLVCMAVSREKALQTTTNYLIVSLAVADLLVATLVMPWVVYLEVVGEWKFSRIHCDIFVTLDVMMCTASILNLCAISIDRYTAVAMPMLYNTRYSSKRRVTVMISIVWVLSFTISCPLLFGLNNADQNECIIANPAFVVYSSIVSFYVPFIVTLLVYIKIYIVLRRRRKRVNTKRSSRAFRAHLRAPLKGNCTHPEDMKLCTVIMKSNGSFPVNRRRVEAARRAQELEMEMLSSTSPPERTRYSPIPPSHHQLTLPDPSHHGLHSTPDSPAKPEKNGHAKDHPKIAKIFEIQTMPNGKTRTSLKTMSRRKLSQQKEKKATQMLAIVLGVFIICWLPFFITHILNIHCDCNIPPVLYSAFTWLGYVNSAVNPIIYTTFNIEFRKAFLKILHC
Sequence of Beta-2 adrenergic receptor (P07550 whole entry): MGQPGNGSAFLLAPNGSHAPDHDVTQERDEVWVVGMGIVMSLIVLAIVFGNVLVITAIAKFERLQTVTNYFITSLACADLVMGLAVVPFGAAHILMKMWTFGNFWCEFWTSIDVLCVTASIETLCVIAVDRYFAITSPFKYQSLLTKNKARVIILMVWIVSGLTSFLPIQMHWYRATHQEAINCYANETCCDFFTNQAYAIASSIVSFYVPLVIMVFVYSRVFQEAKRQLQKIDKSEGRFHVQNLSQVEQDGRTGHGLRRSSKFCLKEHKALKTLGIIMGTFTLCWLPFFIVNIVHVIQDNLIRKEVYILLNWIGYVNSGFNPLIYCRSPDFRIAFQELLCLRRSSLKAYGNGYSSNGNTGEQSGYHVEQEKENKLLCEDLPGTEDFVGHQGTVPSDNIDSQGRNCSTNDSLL

The compound `NC(=O)C(c1ccccc1)(c1ccccc1)[C@@H]1CCN(CCc2ccc3c(c2)CCO3)C1` [DARIFENACIN] gave a half-life in “in vivo” of 7.6 h. Also, the Ratio IC50/EC50 came out at 21 in [1] and 1860 in [3]. Moreover, the Ratio EC50 in data set [2] was 2. Also, in the data set with Cavia porcellus [4], the ED80 amounted to 14 µg/kg.
As to `OCc1cc(C(O)CNCCCCCCOCCCCc2ccccc2)ccc1O` (centres undefined) [SALMETEROL], in “physchem”, the logD stood at 1.9. The half-life in “in vivo” was 2.9 h. The ED80 with Cavia porcellus [4] was determined as 1 µg/kg.
Compound `CCOc1ccc(CCNCCCSCCNC[C@H](O)c2ccc(O)c3[nH]c(=O)sc23)cc1` showed a logD in “physchem” of 0.4.
`O=c1[nH]c2c(O)ccc([C@@H](O)CNCCSCCCNCCc3ccccc3Cl)c2s1` came in with a logD in “physchem” of 1. Besides, the half-life in the data set “in vivo” is 15.9 h. Moreover, the “inhibition (INH)” value in the data set with Cavia porcellus [5] is 49%. Besides, in data set [6], the bioavailability is below 1%. Also, the ED80 with Cavia porcellus [4] stood at 7 µg/kg.
As to `O=c1[nH]c2c(O)ccc([C@@H](O)CNCCCSCCNCCc3cccc(Cl)c3Cl)c2s1`, the logD in “physchem” was determined as 1.7. Further, the Ratio IC50/EC50 amounted to 45 in data set [1] and 562 in data set [3]. For the same compound, the 50% effective concentration (EC50) in [7] is 63.1 nM; in [8], 1.58 nM. The Ratio EC50 in [2] is 35. Moreover, the IC50 on D(2) dopamine receptor was 1000 nM; in data set [9], 79.4 nM.
As for `O=c1[nH]c2c(O)ccc([C@@H](O)CNCCCSCCOCCc3cccc4ccccc34)c2s1`, in “physchem”, the logD was found to be 3.1. Besides, the half-life in the data set “in vivo” was 3.5 h.
`O=c1[nH]c2c(O)ccc([C@@H](O)CNCCSCCCOCCc3ccccc3)c2s1` returned a logD in the data set “physchem” of 2.5. At D(2) dopamine receptor, the IC50 is above 1000 nM.
`O=c1[nH]c2c(O)ccc([C@@H](O)CNCCCSCCCOCCc3ccccc3)c2s1` came in with a logD in the data set “physchem” above 2.5. Besides, the EC50 in [7] was 3.98 nM.
In turn, `CCc1ccc(CCNCCCSCCNC[C@H](O)c2ccc(O)c3[nH]c(=O)sc23)cc1` gave a logD in the data set “physchem” of 0.9.
Compound `O=c1[nH]c2c(O)ccc([C@@H](O)CNCCSCCCNCCc3cccc(Cl)c3Cl)c2s1` had a half-life in the data set “in vivo” of 10.1 h.
As for `O=c1[nH]c2c(O)ccc([C@@H](O)CNCCSCCCNCCc3cccc(C(F)(F)F)c3)c2s1`, in “physchem”, the pH-dependent lipophilicity (logD) came to 1.2.
In turn, `O=c1[nH]c2c(O)ccc(CCNCCS(=O)(=O)CCCOCCc3ccccc3)c2s1` [SIBENADET] had a logD in “physchem” of 2.6. Besides, the results for the Ratio IC50/EC50 in data set [1] and in [3] were above 14000 and 141, respectively. In data set [8], the concentration for a half-maximal effect (EC50) is 0.631 nM. Besides, the values for the IC50 (against D(2) dopamine receptor; in data set [9]) were 100 nM and above 10000 nM, respectively. Besides, the ED80 in the data set with Cavia porcellus [4] is 7 µg/kg.
`O=c1[nH]c2c(O)ccc([C@@H](O)CNCCOCCCNCCc3cccc(Cl)c3)c2s1`: the logD in “physchem” is 0.8.
For `O=c1[nH]c2c(O)ccc([C@@H](O)CNCCCSCCOCCc3ccccc3)c2s1`, the logD in “physchem” is 2.3.
In the case of `O=c1[nH]c2c(O)ccc([C@@H](O)CNCCSCCCNCCc3ccccc3)c2s1`, in “physchem”, the logD is 0.1. Besides, the half-life in the data set “in vivo” is 10.8 h.
As to `O=c1[nH]c2c(O)ccc([C@@H](O)CNCCCOCCNCCc3cccc(Cl)c3Cl)c2s1`, the logD in “physchem” is 0.6. The figures for the Ratio IC50/EC50 in data set [1] and in [3] were 63 and 2510, respectively. The compound further gave an EC50 in data set [7] of 158 nM. The Ratio EC50 in data set [2] was found to be 178. Besides, the results for the concentration for half-maximal inhibition (IC50) (against D(2) dopamine receptor; in data set [9]) were 2000 nM and 50.1 nM, respectively.
`O=c1[nH]c2c(O)ccc([C@@H](O)CNCCS(=O)(=O)CCCNCCc3cccc(Cl)c3)c2s1` gave an IC50 against D(2) dopamine receptor of 794 nM. This lies in the sub-micromolar range.
In turn, `O=c1[nH]c2c(O)ccc([C@@H](O)CNCCCSCCNCCc3cccc(Cl)c3)c2s1` registered a logD in “physchem” of 1.1. This compound also had an IC50 on D(2) dopamine receptor of 1580 nM.
With `CN(CCOCCCNC[C@H](O)c1ccc(O)c2[nH]c(=O)sc12)CCc1ccccc1`, the Ratio IC50/EC50 in data set [1] was 150; in [3], 794. In addition, the EC50 was 200 nM in data set [7] and 2.51 nM in data set [8]. Also, the Ratio EC50 in [2] came out at 79. In addition, the IC50 on D(2) dopamine receptor was 2510 nM; in data set [9], 398 nM.
Consider `O=c1[nH]c2c(O)ccc([C@@H](O)CNCC[S+]([O-])CCCNCCc3cccc(Cl)c3)c2s1` (some centres undefined), for which, in “physchem”, the pH-dependent lipophilicity (logD) was 0.2. Moreover, the Ratio IC50/EC50 in data set [1] was 26; in data set [3], above 560. Besides, the EC50 in data set [7] is 39.8 nM; in [8], 5.01 nM. The Ratio EC50 in data set [2] was 8. The 50% inhibitory concentration (IC50) at D(2) dopamine receptor is above 3160 nM; in data set [9] it was 158 nM.
In “physchem”, `O=c1[nH]c2c(O)ccc([C@@H](O)CNCCCOCCNCCc3cccc(Cl)c3)c2s1` showed a logD of 0. Further, the Ratio IC50/EC50 is 45 in data set [1] and above 14100 in data set [3]. Also, the EC50 is 39.8 nM in data set [7] and 0.2 nM in data set [8]. For the same compound, in data set [2], the Ratio EC50 is 100. The IC50 is above 2510 nM against D(2) dopamine receptor and 63.1 nM in [9].
In data set [7], `O=c1[nH]c2c(O)ccc([C@@H](O)CNCCCSCCNCCc3ccccc3Cl)c2s1` showed a concentration for a half-maximal effect (EC50) of 39.8 nM. This compound also had a 50% inhibitory concentration (IC50) at D(2) dopamine receptor of 1000 nM.
With `O=c1[nH]c2c(O)ccc([C@@H](O)CNCCCOCCOCCc3ccccc3)c2s1`, the logD in the data set “physchem” is 1.1.
Regarding `O=c1[nH]c2c(O)ccc([C@@H](O)CNCCCOCCOCCc3cccc4ccccc34)c2s1`, in “physchem”, the logD stood at 2.3.
